Data: BigSolDB 2.1

For Cc1cc(=O)[nH]c(=S)[nH]1, the solubility (mole fraction) (in DMF, 278.15 K) was 0.0117, the solubility (mole fraction) (in DMF, 283.15 K) was 0.0144 and the solubility (mole fraction) (in DMF, 288.15 K) was 0.0174. The solubility (mole fraction) (in DMF, 293.15 K) was 0.0207, the solubility (mole fraction) (in DMF, 298.15 K) was 0.0252 and the solubility (mole fraction) (in DMF, 303.15 K) was 0.0294. It also gave a solubility (mole fraction) (in DMF, 308.15 K) of 0.0346, a solubility (mole fraction) (in DMF, 313.15 K) of 0.0396 and a solubility (mole fraction) (in DMF, 318.15 K) of 0.0463. The solubility (mole fraction) (in DMF, 323.15 K) was 0.0538, the solubility (mole fraction) (in DMSO, 293.15 K) was 0.0379 and the solubility (mole fraction) (in DMSO, 298.15 K) was 0.0432. The solubility (mole fraction) (in DMSO, 303.15 K) was 0.0491, the solubility (mole fraction) (in DMSO, 308.15 K) was 0.0549 and the solubility (mole fraction) (in DMSO, 313.15 K) was 0.0619. The solubility (mole fraction) (in DMSO, 318.15 K) was 0.0692, the solubility (mole fraction) (in DMSO, 323.15 K) was 0.0773 and the solubility (mole fraction) (in NMP, 278.15 K) was 0.013. For the same molecule, the solubility (mole fraction) (in NMP, 283.15 K) was 0.0155, the solubility (mole fraction) (in NMP, 288.15 K) was 0.0181 and the solubility (mole fraction) (in NMP, 293.15 K) was 0.0212. The solubility (mole fraction) (in NMP, 298.15 K) was 0.0246, the solubility (mole fraction) (in NMP, 303.15 K) was 0.0288 and the solubility (mole fraction) (in NMP, 308.15 K) was 0.0334. It also gave a solubility (mole fraction) (in NMP, 313.15 K) of 0.0391, a solubility (mole fraction) (in NMP, 318.15 K) of 0.0454 and a solubility (mole fraction) (in NMP, 323.15 K) of 0.051. For the same molecule, the solubility (mole fraction) (in water, 278.15 K) was 2.53e-05, the solubility (mole fraction) (in water, 283.15 K) was 3.23e-05 and the solubility (mole fraction) (in water, 288.15 K) was 4.15e-05. It also gave a solubility (mole fraction) (in water, 293.15 K) of 5.26e-05, a solubility (mole fraction) (in water, 298.15 K) of 6.68e-05 and a solubility (mole fraction) (in water, 303.15 K) of 8.48e-05. It also gave a solubility (mole fraction) (in water, 308.15 K) of 0.000106, a solubility (mole fraction) (in water, 313.15 K) of 0.000129 and a solubility (mole fraction) (in water, 318.15 K) of 0.000156. The solubility (mole fraction) (in water, 323.15 K) was 0.000187.
